Measured values as given in PubChem BioAssay AID1421 (Emory University Molecular Libraries Screening Center, 2008).
Calls of active or inactive are those of the source. The rule behind the calls is not given here.

target: Prostaglandin E2 receptor EP2 subtype (Homo sapiens) (UniProt P43116); test: EP2 receptor modulators, dose response, cell-based, human EP2, PGE2 EC50 shift (AID 1421); conditions: EP2-expressing cells, PGE2 EC50 shift by compound
Sequence (P43116 whole entry, looked up): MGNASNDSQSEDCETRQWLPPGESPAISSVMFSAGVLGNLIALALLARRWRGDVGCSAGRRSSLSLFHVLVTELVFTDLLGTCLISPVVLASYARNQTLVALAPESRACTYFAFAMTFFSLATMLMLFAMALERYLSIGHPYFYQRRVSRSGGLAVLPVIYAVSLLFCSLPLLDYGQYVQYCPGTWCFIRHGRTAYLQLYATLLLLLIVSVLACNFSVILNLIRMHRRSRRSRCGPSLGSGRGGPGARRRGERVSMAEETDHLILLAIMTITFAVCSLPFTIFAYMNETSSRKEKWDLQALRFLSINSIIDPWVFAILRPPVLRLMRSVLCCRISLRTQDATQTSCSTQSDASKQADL

Row | SMILES | outcome
1 | Cc1ccc(O)c(C2=Nc3ccccc3N=C(c3cccs3)C2)c1 | active
2 | Cn1nc(-c2ccccc2)c(-c2nc(-c3cccc(C(F)(F)F)c3)no2)c1Cl | active
3 | CC(C)Sc1cc(N2CCOCC2)nc(-c2ccccc2)n1 | active
4 | C/C(=N\NC(=O)NC1CCCCC1)C1CCCCC1 | active
5 | CCn1c2c(c3cc(OCC(C)C)ccc31)CCCC2=O | active
6 | CCOC(=O)c1c(NC(=O)c2ccc(-n3cnnn3)cc2)sc2c1CCCC2 | active
7 | O=C(Nc1ccccc1-c1ccccc1)c1ccc(Br)o1 | active
8 | COc1cccc2cc(/C(=N/O)c3ccccc3)oc12 | active
9 | COc1cc2c(cc1OC)-c1cc(N3CCCc4ccccc43)nc(=O)n1CC2 | active
10 | O=C(Nc1ccccc1Sc1ccccc1)c1ccc(F)cc1 | active

same assay, conditions: EP2-expressing cells, PGE2 EC50 shift by compound; measured here: PGE2 EC50 at 6.7 uM compound

Row | SMILES | PGE2 EC50 with compound [nM]
11 | CCOC(=O)C1=C(CC)Nc2ccccc2N=C1NC(=O)c1oc2ccccc2c1C | 1.19
12 | O=C(NCc1ccco1)C(c1cccs1)N(C(=O)Cc1cccs1)c1ccccc1 (configuration not stated) | 1.49
13 | CCCC(=O)C1=C(O)C(C(=O)OC)C(C)(C)CC1=Nc1cccc2ccccc12 (configuration not stated) | 1.53
14 | COc1ccccc1/C=C/C(=O)OCC(=O)Nc1ccccc1Sc1ccccc1 | 0.76
15 | Cc1ccc(O)c(C2=Nc3ccccc3N=C(c3cccs3)C2)c1 | 1.17
16 | O=C(COc1ccc(Br)cc1)Nc1ccc(-c2nnc(-c3ccco3)o2)cc1 | 0.9
17 | O=C1N2c3ccccc3CCc3cccc(c32)C1(O)C(F)(F)F (configuration not stated) | 0.81
18 | CC(=O)CSc1ncnc2sc3c(c12)CCC(C)C3 (configuration not stated) | 1.75
19 | O=S(=O)(Nc1ccccc1N1CCCCC1)c1ccc(Cl)s1 | 1.49
20 | CN(Cc1c(C(=O)N2CCc3ccccc3C2)nc2ccc(Cl)cn12)C(C1CC1)C1CC1 | 0.9
21 | CCOC(=O)c1c(-c2ccccc2)oc2ccc(OC)cc12 | 1.04
22 | C/C=C(\C)c1nnc(NC(=O)OCC)s1 | 2.65
23 | O=c1cc(N2CCCCC2)c(-c2ccccc2)nn1Cc1cccc(Cl)c1 | 0.32
24 | COC(=O)c1ccc(-c2ccco2)n1Cc1ccccc1Cl | 1.03
25 | Cc1ccc(N/C(C(Cl)=C(Cl)Cl)=C(/Cl)[N+](=O)[O-])c(C)c1 | 1.32
26 | Nc1n[nH]c2c1C1(CCCCC1)Cc1ccccc1-2 | 2.69
27 | COC(=O)C1=C(C)N(C)C(C)=C(C(=O)OC)C1c1cccc(Br)c1 | 0.97
28 | C=CCc1cc(C=C2C(=O)N(C)C(=O)N(C)C2=O)cc(OCC)c1OCc1ccccc1 | 0.94
29 | CCCSc1nc(N2CCCC2)c2c(c1C#N)CC(C)(C)OC2 | 1.15
30 | O=C(c1ccccc1)C1CN(Cc2ccccc2)CCC1(O)c1ccccc1 (configuration not stated) | 2.61
31 | COc1ccc(S(=O)(=O)N(Cc2ccccc2)Cc2nc(-c3ccccc3)no2)cc1 | 1.16
32 | CCOC(=O)c1c(-c2ccc(C)cc2)csc1NC(=O)CCN1CC(C)OC(C)C1 (configuration not stated) | 0.68
33 | O=C(NNc1ccc([N+](=O)[O-])cc1[N+](=O)[O-])C1C2CCCCC21 (configuration not stated) | 0.66
34 | O=c1[nH]c(SCc2cccc(Cl)c2)nc2c1CCCC2 | 0.77
35 | O=C(CN1CCCCCCC1)Nc1ccc(Cl)cc1Cl | 1.11
36 | C=CCSc1nc2ccsc2c(=O)n1-c1ccccc1 | 2.54

Row | SMILES | PGE2 EC50 with compound [nM]
37 | Cc1cc(SCC(=O)NCCC2=CCCCC2)nc2ccccc12 | 2.66
38 | CC(CC(=O)O)(CC(=O)O)C(=O)O | 0.87
39 | Cc1c(NC(=S)NC(=O)c2ccc(-c3ccc(Cl)cc3)o2)cccc1C(=O)O | 0.25
40 | Cn1nc(-c2ccccc2)c(-c2nc(-c3cccc(C(F)(F)F)c3)no2)c1Cl | 0.81
41 | O=C(COc1ccccc1)Nc1cc(C(F)(F)F)ccc1N1CCCC1 | 0.91
42 | CCOC(=O)c1c(N)sc2c1CCC(CC)C2 (configuration not stated) | 1.5
43 | c1ccc(Cn2c(-c3ccccc3)nc3nc4ccccc4nc32)cc1 | 1.08
44 | N#Cc1c(-c2ccco2)nc(SCC(=O)Nc2cccc(Cl)c2)[nH]c1=O | 1.15
45 | O=C1CCCc2ccccc2N1Cc1cccc(Cl)c1 | 2.62
46 | O=C(Nc1ccccc1)/C(=C/c1ccccc1)c1ccccc1 | 2.56
47 | COc1cc2cc(Br)cc(Br)c2nc1C | 2.62
48 | CC(C)Sc1cc(N2CCOCC2)nc(-c2ccccc2)n1 | 1.22
49 | C=C(C)Cn1c(C)cc(C)c(S(=O)(=O)c2cccc(C)c2)c1=O | 1.28
50 | Cc1cccnc1N(C(=O)Nc1ccccc1)C1=NCC(C)(C)S1 | 0.57
51 | CCOC(=O)c1c(NC(=O)COC(=O)Cn2cnc3ccccc32)sc2c1CCC(C)C2 (configuration not stated) | 0.79
52 | C/C(=N\NC(=O)NC1CCCCC1)C1CCCCC1 | 1.79
53 | Cc1ccccc1CSCC(=O)Nc1ccccc1-c1ccccc1 | 1.02
54 | O=C(Nc1ccccc1N1CCCCC1)c1ccc2nccnc2c1 | 1.35
55 | CCn1c(=NC(=O)c2ccc(S(=O)(=O)N(C)C)cc2)sc2cccc(OC)c21 | 1.17
56 | [N-]=[N+]=Nc1ccc(C(=O)CSC[C@H](NC(=O)CC[C@H](N)C(=O)O)C(=O)NCC(=O)O)cc1 | 0.8
57 | CCn1c2c(c3cc(OCC(C)C)ccc31)CCCC2=O | 1.09
58 | COc1ccc2ccc(=O)oc2c1CC=C(C)C | 1.13
59 | O=C(OCc1ccc(Cl)cc1)c1ccccc1C(=O)c1ccccc1 | 1.02
60 | CCSC1=N/C(=C\c2ccccc2)C(=O)N1c1ccc(OC)cc1 | 0.75
61 | O=C(c1ccc(Cl)cc1)c1oc2ccccc2c1CS(=O)c1ccc(Cl)cc1 (configuration not stated) | 0.88
62 | Cc1cccc2cc(CN(Cc3cccs3)C3(c4nnnn4C4CCCC4)CCCC3)c(=O)[nH]c12 | 1.08

Row | SMILES | PGE2 EC50 with compound [nM]
63 | CCOC(=O)c1c(NC(=O)c2ccc(-n3cnnn3)cc2)sc2c1CCCC2 | 0.85
64 | Cc1ccc2nc(N3CCC(C(=O)O)CC3)nc(-c3ccccc3)c2c1 | 1.19
65 | COc1cc(C)c(C(=O)Oc2cc(C)c(C(=O)O)c(O)c2C)c(OC)c1C | 0.98
66 | COC(=O)C1C(c2ccccc2)C(C(=O)OCc2ccco2)C1c1ccccc1 (configuration not stated) | 2.61
67 | COc1cc(C=O)ccc1OC(=O)c1ccc(C(C)C)cc1 | 1.44
68 | O=C(O)CCN1C(=O)/C(=C/c2cn(-c3ccccc3)nc2-c2cccs2)SC1=S | 0.33
69 | CCCCCn1c(CN2CCN(c3cc(Cl)ccc3C)CC2)nc2c1c(=O)[nH]c(=O)n2C | 1.25
70 | O=C(Nc1ccccc1-c1ccccc1)c1ccc(Br)o1 | 1.27
71 | O=C(Cc1ccc(Br)cc1)Nc1ccccc1Sc1ccccc1 | 1.2
72 | COc1cccc2cc(/C(=N/O)c3ccccc3)oc12 | 1.51
73 | CCOCC(=O)Nc1cc(C(F)(F)F)ccc1Oc1cccc(Br)c1 | 0.49
74 | Cc1ccc(N=Nc2c(N)[nH]n3c(=O)c4c(nc23)CCCC4)cc1 | 0.81
75 | CCOC1(OCC)C(c2ccc(N)cc2)C(C#N)(C#N)C1(OCC)OCC (configuration not stated) | 0.31
76 | COc1cc2c(cc1OC)-c1cc(N3CCCc4ccccc43)nc(=O)n1CC2 | 1.98
77 | CCOc1ccc(C2=Nn3c(nnc3-c3ccccc3OC)SC2)cc1 | 0.91
78 | CC(=O)Nc1sc2c(c1C(c1cccs1)N1CCOCC1)CCCC2 (configuration not stated) | 0.99
79 | C[C@H](C(=O)c1ccccc1)[C@@H](c1ccccc1)N1CCOCC1 | 1.43
80 | CCN(c1cccc(C)c1)S(=O)(=O)c1ccc2c3c(cccc13)C(=O)N2 | 0.53
81 | Cn1c(=O)c2c(nc(SCC(=O)c3cccs3)n2Cc2ccc(F)cc2)n(C)c1=O | 0.99
82 | c1ccc(-c2nn3c(C4CCCCC4)nnc3s2)cc1 | 1.07
83 | CC1=CC(C)(C)N(S(=O)(=O)c2ccc(F)cc2)c2ccc(C)cc21 | 0.8
84 | Cc1ccc(-c2nc(P(=O)(c3ccccc3)c3ccccc3)c(N3CCOCC3)o2)cc1 | 1.18
85 | CCOc1ccccc1Cn1c(=O)sc2ccccc21 | 2.65
86 | O=C(O)c1ccc(C(=O)O)c(C(=O)Nc2ccc3c(c2)Cc2ccccc2-3)c1 | 2.77
87 | CCOC(=O)C1=CN(CC2CCCO2)C=C(C(=O)OCC)C1c1ccccc1C(F)(F)F (configuration not stated) | 1.3
88 | CCCCc1ccc(-n2c(Cc3cccs3)n[nH]c2=S)cc1 | 0.8

Row | SMILES | PGE2 EC50 with compound [nM]
89 | O=C(CSc1nnc(Cc2ccccc2)n1Cc1ccco1)NC12CC3CC(CC(C3)C1)C2 | 1.73
90 | CC(C)Cc1nc(SCc2cccnc2)c2c(=O)n(C)c(=O)n(C)c2n1 | 0.67
91 | O=C(CSCc1c(Cl)cccc1Cl)Nc1ccccc1-c1ccccc1 | 1.36
92 | CSc1nc(Oc2ccc(F)cc2)c2ccccc2n1 | 0.61
93 | COc1ccc(-c2nc3c(c(=O)[nH]c(=O)n3Cc3ccccc3)n2Cc2ccccc2)cc1 | 0.55
94 | c1ccc2c(c1)OCC(c1csc3ncnc(N4CCCCC4)c13)O2 (configuration not stated) | 2.54
95 | COCC(=O)Nc1sc2c(c1C(=O)OC)CCC(C)C2 (configuration not stated) | 1.32
96 | COc1cccc(C(=O)Nc2cccc(OCC(=O)O)c2)c1 | 0.93
97 | Cc1ccc(-c2nn(-c3ccccc3)cc2CN(Cc2ccccc2)C(=O)c2ccco2)o1 | 0.7
98 | Cc1ccc(O)c(N=Cc2cc(Cc3ccccc3)cc([N+](=O)[O-])c2O)c1 | 1.07
99 | CCOC(=O)c1sc2nc(C)nc(N3CCN(c4ncccn4)CC3)c2c1C | 0.62
100 | FC(F)(F)c1cccc(-c2cc3ccccc3nc2N2CCCC2)c1 | 1.36
101 | O=C(CSc1nc(Cc2ccccc2)nc2ccccc12)c1ccc2c(c1)OCCO2 | 1.23
102 | CCOC(=O)c1c(NC(=O)CC(C)C)sc(C(C)=O)c1C | 1.25
103 | C=CCc1cc(C=O)cc(OC)c1OCc1c(Cl)cccc1Cl | 0.59
104 | O=C(Nc1ccccc1Sc1ccccc1)c1ccc(F)cc1 | 0.97
105 | N#CCSc1nc2sc3c(c2c(=O)n1C1CCCCC1)CCCC3 | 0.76
106 | Cc1noc(C)c1COC(=O)C(c1ccccc1)c1ccccc1 | 1.27
107 | O=P(c1ccccc1)(c1ccccc1)c1nc(-c2ccccc2)oc1NCc1ccccc1 | 0.33
108 | CCOC(=O)c1c(NC(=O)CN(CC)CC)sc2c1CCN(C(=O)OCC)C2 | 1.34
109 | Cc1ccccc1OCc1nc2ccccc2c(=O)n1/N=C/c1ccco1 | 1.02
110 | CCOP(=O)(OCC)c1nc(-c2ccc(C)cc2)oc1NCc1ccccc1 | 0.83
111 | COC(=O)c1c(NC(=O)CSc2nnc(-c3ccco3)n2Cc2ccccc2)sc(C)c1C | 0.85
112 | O=C(c1ccccc1)N1N=C(c2ccccc2)CC1c1ccccc1O (configuration not stated) | 1.14
